Test results reported in patent publication US5652124A (priority 1989, dated 1997).
Like-named read-outs stand apart in the source and are kept apart here.

Tests used:
[1] = cited from earlier work
[2] = Improvement of water-solubility: standing of saccharide-transfer reaction solution at 4° C.; assay type: physicochemical; settings: 4° C. for 2 days
[3] = test system: α-glucosidase (EC 3.2.1.20) derived from pig liver; assay: Stability against hydrolysis by α-glucosidase; assay type: in vitro ADME
Source text: Acid hydrolysis of the α-glucosyl hesperidin led to the formation of 1 mole of rhamnose and 2 moles of D-glucose per 1 mole hesperidin, while an α-glucosidase, obtained by the extraction from pig liver and partial purification, hydrolyzed α-glucosyl hesperidin into hesperidin and D-glucose.

dd mice = assay: Acute toxicity test; assay type: in vivo; settings: oral, 7 week-old dd mice
Source text: As the result, no mouse died when administered with up to […] of the specimen, and higher dose was difficult.

Compound: COc1ccc([C@@H]2CC(=O)c3c(O)cc(O[C@@H]4O[C@H](CO[C@@H]5O[C@@H](C)[C@H](O)[C@@H](O)[C@H]5O)[C@@H](O)[C@H](O)[C@H]4O)cc3O2)cc1O [hesperidin]
- solubility in water ([1]; ambient temperature): about 0.002 w/v %
- solubility in water (weight per volume of water) ([1]; ambient temperature): about 1 g in 50 liters of water
- solubility in water (in words) [1]: hardly soluble
- appearance of solution after standing [2]: white turbidity

Compound: COc1ccc(C2CC(=O)c3c(O)cc(O[C@@H]4O[C@H](CO[C@@H]5O[C@@H](C)[C@H](O)[C@@H](O)[C@H]5O)[C@@H](O[C@H]5O[C@H](CO)[C@@H](O)[C@H](O)[C@H]5O)[C@H](O)[C@H]4O)cc3O2)cc1O (stereo partly drawn) [α-glucosyl hesperidin]
- hydrolysis by α-glucosidase into hesperidin and D-glucose ([3]; α-glucosidase from pig liver): hydrolyzed

Compound: COc1ccc(C2CC(=O)c3c(O)cc(O[C@@H]4O[C@H](CO[C@@H]5O[C@@H](C)[C@H](O)[C@@H](O)[C@H]5O)[C@@H](O[C@H]5O[C@H](CO)[C@@H](O)[C@H](O)[C@H]5O)[C@H](O)[C@H]4O)cc3O2)cc1O (stereo partly drawn) [α-glycosyl hesperidin specimen [II]]
- toxicity (conclusion in words) (dd mice): extremely low

Compound: α-glycosyl hesperidin
- hydrolysis by α-glucosidase into hesperidin and D-glucose [3]: hydrolyzable
